# How the values were obtained:
# [1] = UV absorption (λmax and ε) of the prepared UV-A screening compounds; type: physicochemical; conditions: UV absorption maximum; solvent not stated
Structure (SMILES),UV: λmax [1] [nm],melting point [°C]
"CC1=CC(=C(C#N)C#N)C=C(C)N1CCC(C)CC(C)(C)C (stereo not shown) [1-N-[3,5,5-trimethylhexyl]-4-dicyanomethylene-2,6-dimethyl-1,4-dihydropyridine]",372,
"CCCCC(CC)COCCCN1C(C)=CC(=C(C#N)C#N)C=C1C (stereo not shown) [1-N-[3-(2-ethylhexyloxy)propyl]-4-dicyanomethylene-2,6-dimethyl-1,4-dihydropyridine]",370,
"CCCCN1C(C)=CC(=C(C#N)C#N)C=C1C [1-N-butyl-4-dicyanomethylene-2,6-dimethyl-1,4-dihydropyridine]",370,
"CCCCCCCCCCCCN1C(C)=CC(=C(C#N)C#N)C=C1C [1-N-dodecyl-4-dicyanomethylene-2,6-dimethyl-1,4-dihydropyridine]",370,
"CC1=CC(=C(C#N)C#N)C=C(C)N1C [1-N-methyl-4-dicyanomethylene-2,6-dimethyl-1,4-dihydropyridine]",368,> 250
"CCOC(=O)C(C#N)=C1C=C(C)OC(C)=C1 [Example 1, ethyl (2,6-dimethyl-pyran-4-ylidene) cyanoacetate]",348,
"CCCCC(CC)COC(=O)C(C#N)=C1C=C(C)OC(C)=C1 (stereo not shown) [Example 2, 2-ethylhexyl (2,6-dimethyl-pyran-4-ylidene) cyanoacetate]",352,
"CCC1=C(C)C(=C(C#N)C#N)C(C)=C(CC)O1 [Example 3, 2-(2,6-diethyl-3,5-dimethylpyran-4-ylidene)malononitrile]",366,64 to 65
"CCCC1=C(CC)C(=C(C#N)C#N)C(CC)=C(CCC)O1 [Example 4, 2-(3,5-diethyl-2,6-dipropylpyran-4-ylidene)malononitrile]",364,
"CCCCC(CC)CN1C(C)=CC(=C(C#N)C#N)C=C1C (stereo not shown) [Example 5, 1-N-(2-ethylhexyl)-4-dicyanomethylene-2,6-dimethyl-1,4-dihydropyridine]",372,187
"CCCCC(CC)COC(=O)C(C#N)=C1C=C(C)N(CCCC)C(C)=C1 (stereo not shown) [Example 7, 2-ethylhexyl (1-N-butyl-2,6-dimethyl-1H-pyridin-4-ylidene)cyanoacetate]",374,69 to 70
"CCCCC(CC)COCCCN1C(C)=CC(=C(C#N)C(=O)OCC(CC)CCCC)C=C1C (stereo not shown) [Example 8, 2-ethylhexyl (1-N-[3-(2-ethylhexyloxy)propyl]-2,6-di-methyl-1H-pyridin-4ylidene)cyanoacetate]",366,69 to 70
"CC1=CC(=C(C#N)C#N)C=C(C)N1CCCOCCOCCOCCCN1C(C)=CC(=C(C#N)C#N)C=C1C [Example 9, 2-{1-[3-(2-{2-[3-(4-dicyanomethylene-2,6-dimethyl-4H-pyridin-1-yl)-propoxy]-ethoxy}-ethoxy)-propyl]-2,6-dimethyl-1H-pyridin-4-ylidene}-malononitrile]",372,138 to 139
